In patent US6194451A, “Matrix metalloproteinase inhibitors” (Pharmacia & Upjohn S.p.A., priority 1997, dated 2001):

Key:
Aqueous solubility = assay type: physicochemical; details: water, pH 7.0, 25° C.
Protocol: Further, several compounds of formula (I), in particular when R2 is hydroxy, and when R1 is hydroxymethyl, have enhanced water solubility as compared to the vast majority of MMP inhibitors of the prior art. An aqueous solubility threshold, which may vary widely but can be roughly set in the range of 1-10 mg/mL, makes systemic administration easy, and more than often is essential to good oral bioavailability.

[1] = target: T1, MMP-2 (human gelatinase A) (Homo sapiens, UniProt P08253); assay: Biochemical Assay (Protocol A): inhibition of human gelatinase A, fluorimetric peptide substrate; details: MMP-2, pH 7.4, 37° C.
T1 sequence (P08253 110-660): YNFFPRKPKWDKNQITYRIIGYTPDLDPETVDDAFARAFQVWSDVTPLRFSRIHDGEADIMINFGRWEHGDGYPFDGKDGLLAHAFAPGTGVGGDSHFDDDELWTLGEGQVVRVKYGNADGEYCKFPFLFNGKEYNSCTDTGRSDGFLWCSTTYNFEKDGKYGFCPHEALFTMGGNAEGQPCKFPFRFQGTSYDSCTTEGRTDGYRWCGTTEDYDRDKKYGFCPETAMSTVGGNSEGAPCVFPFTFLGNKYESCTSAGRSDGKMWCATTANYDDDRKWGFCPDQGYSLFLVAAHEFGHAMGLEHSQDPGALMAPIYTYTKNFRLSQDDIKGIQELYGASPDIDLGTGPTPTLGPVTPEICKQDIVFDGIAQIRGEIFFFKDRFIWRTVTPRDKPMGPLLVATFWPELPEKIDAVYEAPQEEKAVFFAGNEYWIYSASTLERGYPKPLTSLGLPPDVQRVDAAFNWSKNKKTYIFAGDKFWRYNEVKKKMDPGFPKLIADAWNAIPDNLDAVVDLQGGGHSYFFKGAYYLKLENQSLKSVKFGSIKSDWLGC
Description: As mentioned above, although low molecular weight MMP inhibitors, including hydroxamates of general formula (A), are already known, there is a strong need for better and diversified molecules for their use in medicine, that is in particular in the control or prevention of degenerative joint diseases such as rheumatoid arthritis and osteoarthritis, or in the management of multiple sclerosis, or in the treatment of invasive tumors. […] For example, the following protocol was used to assess the biochemical activity of compounds of formula (I) against MMP-1, MMP-2, and MMP-3 (respectively, human interstitial collagenase, gelatinase A, and stromelysin-1).
Human gelatinase-A (MMP-2) was obtained as pro-enzyme (72 kDa) and was activated with 1 mM 4-aminophenylmercuric acetate for 30 min at 37° C. immediately prior to use. Human stromelysin-1 (MMP-3) was obtained as a recombinant pro-enzyme isolated either from E. coli or from baculovirus infected Sf9 insect cells and activated either by heat (1 h, 55° C.) or by 5 mg/l trypsin (30 min, 37° C.) before addition of soybean trypsin inhibitor, finally removed by centrifugation.
All enzyme assays to determine values of the enzyme-inhibitor dissociation constants were performed using the peptide substrate (7-methoxycoumarin-4-yl)Acetyl-Pro-Leu-Gly-Leu-(3-[2,4-dinitrophenyl]-L-2,3-diaminopropionyl)-Ala-Arg-NH2 (Mca-Pro-Leu-Gly-Leu-Dpa-Ala-Arg--NH2) (C. G. Knight et al., FEBS Lett. 296:263-266, 1992). The enzymes cleave at the Gly-Leu bond removing the internally quenching Dpa group. The release of the highly fluorescent peptide Mca-Pro-Leu was followed fluorimetrically setting the excitation wavelength at 326 nm (bandwidth 5 nm) and the emission at 392 nm (bandwidth 20 nm).
Continuous fluorescence assay was carried out using a Perkin Elmer LS-50 Fluorescence Spectrophotometer fitted with a thermostatted four position stirring cell changer. Inhibitors were dissolved in the assay buffer ([…] Tris/HCl pH 7.4 containing 0.15 M NaCl, 10 mM CaCl2, 0.01 mM ZnCl2 and 0.05% Brij 35) thermostatted at 37° C. The reaction was started by the addition of substrate ([…]), followed by the addition of the enzyme (e.g. 1.0 nM collagenase, 0.04 nM gelatinase, or 3.0 nM stromelysin) and the increase in fluorescence was monitored over 30 min. The run was repeated at different concentrations of inhibitors in the range 0.1-10000 nM and data at inhibitor concentration in the region if their enzyme-inhibitor dissociation constants were used for calculation.
Substrate consumption was within 5% of the initial concentration and data outside this range were discarded. The Michaelis constants (Km) for the enzyme-substrate complexes is […] or greater (C. G. Knight et al., reference above), so that the factor (1+S/Km) can be approximated to unity without appreciable error.

CNC(=O)[C@@H](NC(=O)[C@H](CC(C)C)[C@](O)(CO)C(=O)NO)C(C)(C)C [Example 3]
solubility (Aqueous solubility): > 15 mg/mL | Ki [1]: 9.2 nM
